Experimental data published in US10793563B2, “GCN2 inhibitors and uses thereof” (Merck Patent GmbH, priority 2018, dated 2020).

Assays:
[1] = biological target: GCN2 kinase (Homo sapiens (Human), UniProt Q9P2K8); test: GCN2 Enzyme Inhibition Assay (Transcreener ADP2 fluorescence polarization); format: biochemical; conditions: 280 μM ATP, 200 μM (RS)7 peptide, 4 nM GCN2, 25° C.; for Ki: Ki(app)
How it was run: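 Transcreener ADP2 fluorescence polarization detection of ADP from 4 nM GCN2 with (RS)7 substrate in 25 mM Tris-HCl pH 7.5, 50 mM NaCl, 10 mM MgCl2, 1 mM DTT. Compound pre-incubated with enzyme 10 min at 25 °C; reaction started by ATP, run 1 h at 25 °C. IC50 and Ki(app) by tight-binding fit.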

[2] = biological target: intracellular GCN2 (phosphorylation of the GCN2 substrate eIF2α) (Homo sapiens (Human), UniProt Q9P2K8); test: GCN2 Cellular Inhibition Assay (AlphaScreen SureFire P-eIF2α Ser51, borrelidin-treated U2OS cells); format: cell-based; conditions: 10 μM borrelidin, 1 h, phosphorylated eIF2α Ser51, read-out: GCN2 Biomarker (IC50)
Sequence of intracellular GCN2 (phosphorylation of the GCN2 substrate eIF2α) (Q9P2K8 whole entry): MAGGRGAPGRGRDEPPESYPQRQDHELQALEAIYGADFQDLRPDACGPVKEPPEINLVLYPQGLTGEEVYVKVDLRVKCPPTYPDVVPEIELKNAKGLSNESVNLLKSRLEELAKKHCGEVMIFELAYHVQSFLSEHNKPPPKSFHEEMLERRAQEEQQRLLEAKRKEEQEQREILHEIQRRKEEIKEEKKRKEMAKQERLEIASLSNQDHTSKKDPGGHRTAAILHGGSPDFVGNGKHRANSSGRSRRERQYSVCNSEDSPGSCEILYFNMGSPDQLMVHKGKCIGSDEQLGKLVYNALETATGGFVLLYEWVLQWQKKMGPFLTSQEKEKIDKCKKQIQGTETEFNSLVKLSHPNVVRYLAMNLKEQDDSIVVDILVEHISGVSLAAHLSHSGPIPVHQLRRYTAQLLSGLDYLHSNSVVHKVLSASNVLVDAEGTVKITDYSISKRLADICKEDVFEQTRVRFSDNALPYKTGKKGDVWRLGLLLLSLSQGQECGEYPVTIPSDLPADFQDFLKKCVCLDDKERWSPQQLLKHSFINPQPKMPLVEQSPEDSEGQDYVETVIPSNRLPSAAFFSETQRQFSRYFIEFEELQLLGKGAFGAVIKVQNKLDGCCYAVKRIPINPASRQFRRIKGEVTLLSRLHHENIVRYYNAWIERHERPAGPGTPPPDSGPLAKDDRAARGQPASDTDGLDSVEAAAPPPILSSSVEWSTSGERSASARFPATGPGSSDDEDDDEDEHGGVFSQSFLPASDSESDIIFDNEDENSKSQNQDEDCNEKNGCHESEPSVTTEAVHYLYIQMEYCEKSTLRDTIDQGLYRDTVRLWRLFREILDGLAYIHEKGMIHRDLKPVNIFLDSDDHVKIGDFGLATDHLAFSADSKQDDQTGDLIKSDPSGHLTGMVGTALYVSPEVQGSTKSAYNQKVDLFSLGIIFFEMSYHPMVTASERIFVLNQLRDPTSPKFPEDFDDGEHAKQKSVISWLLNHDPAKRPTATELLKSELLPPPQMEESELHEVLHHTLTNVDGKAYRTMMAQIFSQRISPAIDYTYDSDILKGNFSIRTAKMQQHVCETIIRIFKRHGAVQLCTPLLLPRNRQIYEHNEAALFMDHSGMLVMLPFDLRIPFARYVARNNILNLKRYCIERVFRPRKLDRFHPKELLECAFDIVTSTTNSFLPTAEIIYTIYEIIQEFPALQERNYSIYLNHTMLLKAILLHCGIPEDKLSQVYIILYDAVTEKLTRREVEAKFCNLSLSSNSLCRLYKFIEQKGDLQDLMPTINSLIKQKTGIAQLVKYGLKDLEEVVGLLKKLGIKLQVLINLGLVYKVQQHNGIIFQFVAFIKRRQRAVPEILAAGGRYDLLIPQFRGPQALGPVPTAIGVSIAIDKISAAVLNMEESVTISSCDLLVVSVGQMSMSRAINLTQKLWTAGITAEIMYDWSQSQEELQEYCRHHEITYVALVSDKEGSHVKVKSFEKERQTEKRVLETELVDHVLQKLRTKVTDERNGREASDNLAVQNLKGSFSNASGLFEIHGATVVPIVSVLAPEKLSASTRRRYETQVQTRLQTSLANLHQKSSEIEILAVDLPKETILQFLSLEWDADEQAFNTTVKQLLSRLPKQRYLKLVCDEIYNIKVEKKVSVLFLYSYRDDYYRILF
Description: Compounds can be screened for their ability to inhibit intracellular GCN2 using an AlphaScreen assay (Perkin Elmer) to detect phosphorylation of the GCN2 substrate eIF2α in borrelidin-treated cells. U2OS cells are plated at 5,000 cells per well in 384-well white polystyrene plates (Corning 3570) in McCoy's 5A media (GIBCO 26600-023) supplemented with 10% foetal bovine serum (SAFC 12103C), Penicillin/Streptomycin solution diluted 1:100 (Sigma P0781), and 2 mM L-glutamine (Sigma G7513), and allowed to adhere overnight at 37° C. in 5% CO2. Compounds are then added to the cell media from a final concentration of 40 μM in 4-fold serial dilutions. Borrelidin (FluoroChem M01440) is immediately added to the wells to a final concentration of 10 μM and the cells are incubated for 1 h at 37° C. in 5% CO2. After 1 h of treatment with borrelidin, the media is removed, and the cells are lysed with lysis buffer (TGR BioSceinces TGRLB) at ambient temperature.
An AlphaScreen SureFire P-eIF2α (Ser51) assay kit (Perkin Elmer TGREIF2S) was used to measure levels of eIF2α phosphorylated on Serine 51. Anti-phosphorylated eIF2α Ser51 antibody-linked acceptor beads (TGR BioScience 6760617) are added to the cell homogenate (diluted 1:250 into a mixture of activation (TGR BioScience TGRAB) and reaction buffer (TGR BioScience TGREIF2S) prepared immediately before use). The plate is then incubated for 2 h at ambient temperature in the dark. Anti-eIF2α antibody-linked donor beads (TGR BioScience 6760617) were then added (diluted 1:100 in dilution buffer (TGR BioScience TGRDB) prepared immediately before use). The plate is then incubated overnight at ambient temperature in the dark.
Plates are analyzed on an Alpha Technology-compatible PHERAstar FS plate reader (BMG Labtech Version 1.14) to quantify phosphorylated eIF2α Ser51 levels. The percentage inhibition of phosphorylated eIF2α is calculated by comparison to control wells stimulated with borrelidin alone.

Sequence of GCN2 kinase (Q9P2K8 whole entry): as above

SMILES | Ki [1] [nM] | IC50 [2] [nM] | IC50 [1] [nM]
FC(F)(F)c1ccc2ncc(-c3nc(N4CCOC(c5cn[nH]c5)C4)ns3)n2c1 (stereo not drawn) [I-108, 2-(1H-pyrazol-4-yl)-4-(5-(6-(trifluoromethyl)imidazo[1,2-a]pyridin-3-yl)-1,2,4-thiadiazol-3-yl)morpholine] | < 10 | < 500 | –
NC(=O)[C@@H]1CCCN(c2nc(-c3cnc4ccc(C(F)(F)F)cn34)ccc2F)C1 [I-260, (R)-1-(3-fluoro-6-(6-(trifluoromethyl)imidazo[1,2-a]pyridin-3-yl)pyridin-2-yl)piperidine-3-carboxamide] | – | < 500 | < 10
C[C@@H]1[C@H](CNS(C)(=O)=O)N(C2CC2)[C@H](C)CN1c1ccnc(-c2cnc3ccc(C(F)(F)F)cn23)n1 (stereo in doubt) [I-494, N-(((2S,3R,6R)-1-cyclopropyl-3,6-dimethyl-4-(2-(6-(trifluoromethyl)imidazo[1,2-a]pyridin-3-yl)pyrimidin-4-yl)piperazin-2-yl)methyl)methanesulfonamide] | – | 500 to 5000 | 100 to 1000
C[C@H]1CN(c2nccc(-c3cnc4cc(F)c(Cl)cn34)n2)C[C@@H](c2cn[nH]c2)O1 [I-270, (2S,6R)-4-(4-(6-chloro-7-fluoroimidazo[1,2-a]pyridin-3-yl)pyrimidin-2-yl)-2-methyl-6-(1H-pyrazol-4-yl)morpholine] | – | < 500 | < 10
C[C@H]1[C@@H](CNS(C)(=O)=O)N(C2CC2)CCN1c1nccc(-c2cnc3ccc(C(F)(F)F)cn23)n1 [I-541, N-(((2R,3 S)-1-cyclopropyl-3-methyl-4-(4-(6-(trifluoromethyl)imidazo[1,2-a]pyridin-3-yl)pyrimidin-2-yl)piperazin-2-yl)methyl)methanesulfonamide] | – | 500 to 5000 | 100 to 1000
OC1CC(N2CCN(c3ccnc(-c4cnc5ccc(C(F)(F)F)cn45)n3)CC2c2cn[nH]c2)C1 (stereo not drawn) [I-383, 3-(2-(1H-pyrazol-4-yl)-4-(2-(6-(trifluoromethyl)imidazo[1,2-a]pyridin-3-yl)pyrimidin-4-yl)piperazin-1-yl)cyclobutan-1-ol] | – | 500 to 5000 | < 10
CS(=O)(=O)NCC1CCCN(c2nsc(-c3cnc4ccc(C(F)(F)F)cn34)n2)C1 (stereo not drawn) [I-110, N-((1-(5-(6-(trifluoromethyl)imidazo[1,2-a]pyridin-3-yl)-1,2,4-thiadiazol-3-yl)piperidin-3-yl)methyl)methanesulfonamide] | < 10 | 500 to 5000 | –
COc1cc(-c2cnc3ccc(Cl)cn23)nc(N2C[C@@H](C)C[C@@H](c3cn[nH]c3)C2)n1 [I-281, 6-chloro-3-(6-methoxy-2-((3S,5S)-3-methyl-5-(1H-pyrazol-4-yl)piperidin-1-yl)pyrimidin-4-yl)imidazo[1,2-a]pyridine] | – | < 500 | 10 to 100
C[C@H]1[C@H](c2cn[nH]c2)N(C2COC2)CCN1c1ccnc(-c2cnc3ccc(C(F)(F)F)cn23)n1 [I-364, 3-(4-((2S,3 S)-2-methyl-4-(oxetan-3-yl)-3-(1H-pyrazol-4-yl)piperazin-1-yl)pyrimidin-2-yl)-6-(trifluoromethyl)imidazo[1,2-a]pyridine] | – | > 5000 | 100 to 1000
CC(C)(C)c1ncc(CN2CCN(c3ccnc(-c4cnc5ccc(C(F)(F)F)cn45)n3)CC2c2cn[nH]c2)[nH]1 (stereo not drawn) [I-373, 3-(4-(4-((2-(tert-butyl)-1H-imidazol-5-yl)methyl)-3-(1H-pyrazol-4-yl)piperazin-1-yl)pyrimidin-2-yl)-6-(trifluoromethyl)imidazo[1,2-a]pyridine] | – | < 500 | < 10
Cn1cc(C(=O)N2CCN(c3ccnc(-c4cnc5ccc(C(F)(F)F)cn45)n3)CC2c2cn[nH]c2)cn1 (stereo not drawn) [I-418, (2-(1H-pyrazol-4-yl)-4-(2-(6-(trifluoromethyl)imidazo[1,2-a]pyridin-3-yl)pyrimidin-4-yl)piperazin-1-yl)(1-methyl-1H-pyrazol-4-yl)methanone] | – | 500 to 5000 | 10 to 100
OCC(O)CN1CCN(c2ccnc(-c3cnc4ccc(C(F)(F)F)cn34)n2)CC1c1cn[nH]c1 (stereo not drawn) [I-352, 3-(2-(1H-pyrazol-4-yl)-4-(2-(6-(trifluoromethyl)imidazo[1,2-a]pyridin-3-yl)pyrimidin-4-yl)piperazin-1-yl)propane-1,2-diol] | – | 500 to 5000 | < 10
Cn1cc(CN2CCN(c3ccnc(-c4cnc5ccc(C(F)(F)F)cn45)n3)CC2c2cn[nH]c2)cn1 (stereo not drawn) [I-384, 3-(4-(4-((1-methyl-1H-pyrazol-4-yl)methyl)-3-(1H-pyrazol-4-yl)piperazin-1-yl)pyrimidin-2-yl)-6-(trifluoromethyl)imidazo[1,2-a]pyridine] | – | < 500 | < 10
Cc1oncc1[C@@H]1CN(c2ccnc(-c3cnc4ccc(C(F)(F)F)cn34)n2)C[C@H](C)O1 [I-346, (2S,6R)-2-methyl-6-(5-methylisoxazol-4-yl)-4-(2-(6-(trifluoromethyl)imidazo[1,2-a]pyridin-3-yl)pyrimidin-4-yl)morpholine] | – | < 500 | 10 to 100
C[C@H]1C[C@H](c2cn[nH]c2)CN(c2nccc(-c3cnc4ccc(Cl)cn34)n2)C1 (stereo in doubt) [I-198, 6-chloro-3-(2-((3S,5R)-3-methyl-5-(1H-pyrazol-4-yl)piperidin-1-yl)pyrimidin-4-yl)imidazo[1,2-a]pyridine] | – | 500 to 5000 | < 10
CS(=O)(=O)NCC1CCCN(c2nc(-c3cnc4ccc(C(F)(F)F)cn34)ns2)C1 (stereo not drawn) [I-112, N-((1-(3-(6-(trifluoromethyl)imidazo[1,2-a]pyridin-3-yl)-1,2,4-thiadiazol-5-yl)piperidin-3-yl)methyl)methanesulfonamide] | < 10 | 500 to 5000 | –

Results, then the molecule that gave them:

Ki [1] [nM] | IC50 [2] [nM] | IC50 [1] [nM] | SMILES
– | 500 to 5000 | 10 to 100 | C[C@H](NS(C)(=O)=O)[C@H]1CN(c2ccnc(-c3cnc4ccc(C(F)(F)F)cn34)n2)CCO1 (stereo in doubt) [I-405, N—((S)-1-((R)-4-(2-(6-(trifluoromethyl)imidazo[1,2-a]pyridin-3-yl)pyrimidin-4-yl)morpholin-2-yl)ethyl)methanesulfonamide]
10 to 100 | 500 to 5000 | – | Clc1ccc2ncc(-c3nccc(N4CCCC(c5c[nH]cn5)C4)n3)n2c1 (stereo not drawn) [I-55, 6-Chloro-3-{4-[3-(1H-imidazol-4-yl)-piperidin-1-yl]-pyrimidin-2-yl}-imidazo[1,2-a]pyridine]
– | 500 to 5000 | 10 to 100 | NC(=O)C1CN(c2ccnc(-c3cnc4cc(F)c(Cl)cn34)n2)CCN1C1CC1 (stereo not drawn) [I-389, 4-(2-(6-chloro-7-fluoroimidazo[1,2-a]pyridin-3-yl)pyrimidin-4-yl)-1-cyclopropylpiperazine-2-carboxamide]
< 10 | < 500 | – | FC(F)(F)c1ccc2ncc(-c3nccc(N4CCOC(c5cn[nH]c5)C4)n3)n2c1 (stereo not drawn) [I-45, 2-(1H-Pyrazol-4-yl)-4-(2-(6-(trifluoromethyl)imidazo[1,2-a]pyridin-3-yl)pyrimidin-4-yl)morpholine]
100 to 1000 | > 5000 | – | CC(C)n1cc(C2(O)CCCN(c3ccnc(-c4cnc5ccc(Cl)cn45)n3)C2)nn1 (stereo not drawn) [I-76, 1-[2-(6-Chloro-imidazo[1,2-a]pyridin-3-yl)-pyrimidin-4-yl]-3-(1-isopropyl-1H-[1,2,3]triazol-4-yl)-piperidin-3-ol]
10 to 100 | > 5000 | – | CS(C)(=O)=NC1CCCN(c2ccnc(-c3cnc4cc(F)c(Cl)cn34)n2)C1 (stereo not drawn) [I-49, ((1-(2-(6-Chloro-7-fluoroimidazo[1,2-a]pyridin-3-yl)pyrimidin-4-yl)piperidin-3-yl)imino)dimethyl-λ^6-sulfanone]
– | 500 to 5000 | 10 to 100 | NC(=O)[C@H]1CN(c2ccnc(-c3cnc4ccc(Cl)cn34)n2)CCN1C1CC1 [I-349, (R)-4-(2-(6-chloroimidazo[1,2-a]pyridin-3-yl)pyrimidin-4-yl)-1-cyclopropylpiperazine-2-carboxamide]
– | 500 to 5000 | 100 to 1000 | CC(C)(C)OC(=O)N1CC2(CCCN(c3ccnc(-c4cnc5ccc(Cl)cn45)n3)C2)C1 [I-285, tert-butyl 6-(2-(6-chloroimidazo[1,2-a]pyridin-3-yl)pyrimidin-4-yl)-2,6-diazaspiro[3.5]nonane-2-carboxylate]
